Entries after “also recorded” stand apart in the source; their conditions may differ.
Experiments:
[1] = annotation of the molecule (low/no risk versus high/at risk); cited from earlier work
[2] = system: ADAR1a mRNA expression; assay: Relative ADAR1a mRNA expression by quantitative PCR in treated SH-SY5Y cells; format: cell-based, human; conditions: 48 hours
Experimental: After cDNA synthesis samples were stored at 4° C. prior analysis of ADAR1a mRNA expression by qPCR on a LC480 system (Roche). qPCR data were quantified using the standard curve method. mRNA expression of ADAR1a is known to be induced by Interferon alpha treatment (IFNα). […] In this way, all samples of the same batch could be analysed in a single qPCR run. […] This response could be seen in all biological replicates (n=5). […] The coefficient of variation of 9.31% clearly illustrates the reproducibility of the biological phenomenon.

[3] = system: HTR2C RNA editing; assay: Dose-dependent alterations of HTR2C RNA editing profile in SH-SY5Y cells; format: cell-based, human; conditions: compared to vehicle-treated cells
Experimental: Prior to the experiment, the human neuroblastoma cell line (SH-SY5Y) was treated with an increasing dose of interferon and RNA editing of 5HT2cR was measured using NGS based approach.
The RNA editing profiles represent the respective relative proportion of HTR2C RNA editing as compared to vehicle-treated SH-SY5Y cells.

[4] = system: HTR2C RNA editing; assay: Time course of HTR2C RNA editing in SH-SY5Y cells with risk score by the most preferred algorithm (prob(Algorithm)); format: cell-based, human; conditions: for prediction / prob(Algorithm) risk score: SH-SY5Y, HTR2C; for time course of HTR2C RNA editing profile: SH-SY5Y cells, 12-48 h; for risk score over time points: most preferred algorithm, each time point

CNCCC(Oc1ccc(C(F)(F)F)cc1)c1ccccc1 (centres unmarked) [Fluoxetine]
risk class to induce psychiatric adverse side effect in a patient [1]: high risk

CCN(CC)CC(=O)Nc1c(C)cccc1C [Lidocaine]
risk class to induce psychiatric adverse side effect in a patient [1]: low or no risk

COC(=O)[C@H]1[C@H]2C[C@@H]3c4[nH]c5cc(OC)ccc5c4CCN3C[C@H]2C[C@@H](OC(=O)c2cc(OC)c(OC)c(OC)c2)[C@@H]1OC [molecule 165]
effect on ADAR1a mRNA expression [2]: induced ADAR1a mRNA expression; also recorded: strong increase of ADAR1a mRNA expression levels

CNC1(c2ccccc2Cl)CCCCC1=O (centres unmarked) [Ketamine]
dose dependence of 5-HT2cR/HTR2C RNA editing profile [3]: Dose-dependent alterations of RNA editing profiles | risk class to induce psychiatric adverse side effect in a patient [1]: low risk

CC1=C(/C=C/C(C)=C/C=C/C(C)=C\C(=O)O)C(C)(C)CCC1 [Isotretinoin]
risk class to induce psychiatric adverse side effect in a patient [1]: at risk

COC(=O)[C@H]1[C@H]2C[C@@H]3c4[nH]c5cc(OC)ccc5c4CCN3C[C@H]2C[C@@H](OC(=O)c2cc(OC)c(OC)c(OC)c2)[C@@H]1OC [Reserpine]
effect on ADAR1a mRNA expression [2]: consistently increase ADAR1a mRNA levels | prediction ([4]; 12 h treatment): Pos | prob(Algorithm) risk score ([4]; 12 h treatment): 0.878 | prediction ([4]; 24 h treatment): Pos | prob(Algorithm) risk score ([4]; 24 h treatment): 0.986 | prediction ([4]; 48 h treatment): Pos | prob(Algorithm) risk score ([4]; 48 h treatment): 0.976 | time course of HTR2C RNA editing profile [4]: time-dependent alterations of the RNA editing profile | risk score over time points [4]: risk scores were high at all time points | risk class to induce psychiatric adverse side effect in a patient [1]: high risk

CN[C@H]1CC[C@@H](c2ccc(Cl)c(Cl)c2)c2ccccc21 [Sertraline]
dose dependence of 5-HT2cR/HTR2C RNA editing profile [3]: Dose-dependent alterations of RNA editing profiles | risk class to induce psychiatric adverse side effect in a patient [1]: at risk

NC(=O)c1ncn([C@@H]2O[C@H](CO)[C@@H](O)[C@H]2O)n1 [Ribavirin]
risk class to induce psychiatric adverse side effect in a patient [1]: low risk

C[C@H](NC(=O)C(C)(C)Oc1ccc(C(F)(F)F)cn1)[C@@H](Cc1ccc(Cl)cc1)c1cccc(C#N)c1 [Taranabant]
risk class to induce psychiatric adverse side effect in a patient [1]: at risk

O=C1CCc2ccc(OCCCCN3CCN(c4cccc(Cl)c4Cl)CC3)cc2N1 [Aripiprazole]
prob(Algorithm) risk score ([4]; 12 h treatment): 0.528 | prediction ([4]; 24 h treatment): Pos | prob(Algorithm) risk score ([4]; 24 h treatment): 0.632 | prediction ([4]; 48 h treatment): Pos | prob(Algorithm) risk score ([4]; 48 h treatment): 0.760 | time course of HTR2C RNA editing profile [4]: time-dependent alterations of the RNA editing profile | risk score over time points [4]: identified positively at risk starting from 24 hours and beyond | risk class to induce psychiatric adverse side effect in a patient [1]: at risk

[Li] [Lithium]
risk class to induce psychiatric adverse side effect in a patient [1]: low risk
